According to USRE48461E1, “Modulation of androgen receptor expression” (Ionis Pharmaceuticals, Inc., priority 2012, dated 2021):

Legend:
Type in all cases: cell-based, human
[1] = test system: VCaP cells; test: VCaP apoptosis (Caspase-Glo 3/7); details: complete medium, 72 hours; for Apoptosis (% untreated control): VCaP cells
Procedure: After a treatment period of 72 hours in complete medium, apoptosis of the cancer cells was measured with Caspase-Glo 3/7 assay (Promega). Results are presented in Tables 117 and 118 as percent apoptosis of the cells, relative to non-treated cells.

[2] = test system: C4-2B cells; test: C4-2B cell proliferation, ASO in combination with MDV3100 (Example 21); details: for Proliferation (% untreated control) in C4-2B without MDV-3100: 5 days
Procedure: (§1) C4-2B cells were plated at 1,000 cells per well. […] ISIS 549148 was included as a negative control. […] After a treatment period of 5 days, the proliferative capacity of the cancer cells was measured with CellTiter 96® AQueous One Solution Cell Proliferation kit (Promega), following the manufacturer's instructions. […]

[3] = test system: TMPRSS2 mRNA; test: Time-course TMPRSS2 expression in C4-2B cells
Summary of the method: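 C4-2B cells at 1,000/well in complete medium, treated with antisense oligonucleotide; ISIS 549148 as negative control. PSA and TMPRSS2 mRNA measured after 8, 24 and 48 h, given as percent inhibition relative to non-treated cells.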

[4] = test system: AR mRNA; test: AR mRNA levels in LMR20 cells (with/without DHT or R1881); details: with or without DHT/R1881
Procedure: LMR20 cells were plated at 1,500 cells per well in phenol red-free medium with CSS.

[5] = test system: 22RV1 cells; test: 22RV1 cell proliferation with/without DHT (MTT); details: 5 days; for Percent inhibition of 22RV1 cell proliferation: RNAiMAX
Procedure: 22RV1cells were plated at 1,500 cells per well. […] Separate sets of cells, also treated with each of the antisense oligonucleotides, were treated with DHT added on day 1 at a final concentration of 1 nM. After a treatment period of 5 days, the proliferative ability of the cancer cells was measured using the standard MTT assay. Results are presented in Table 69 as percent inhibition of proliferation, relative to non-treated cells.

[6] = test system: LNCaP cells; test: LNCaP cell proliferation, ASO in combination with MDV3100 (Example 20); details: for Proliferation (% untreated control) in LNCaP without MDV-3100: 5 days
Procedure: as §1, with “LNCaP” for “C4-2B”, “One or CellTiter-Glo®” for “One”

[7] = ASO dose 0.04 μM + 0.08 μM MDV-3100
[8] = ASO dose 0.04 μM + 0.4 μM MDV-3100
[9] = ASO dose 0.04 μM + 2.0 μM MDV-3100
[10] = ASO dose 0.04 μM + […] MDV-3100
[11] = ASO dose 0.08 μM + 0.08 μM MDV-3100
[12] = ASO dose 0.08 μM + 0.4 μM MDV-3100
[13] = ASO dose 0.08 μM + 2.0 μM MDV-3100
[14] = ASO dose 0.08 μM + […] MDV-3100
[15] = ASO dose 0.2 μM + 0.08 μM MDV-3100
[16] = ASO dose 0.2 μM + 0.4 μM MDV-3100
[17] = ASO dose 0.2 μM + 2.0 μM MDV-3100
[18] = ASO dose 1.0 μM + 0.08 μM MDV-3100
[19] = ASO dose 1.0 μM + 0.4 μM MDV-3100
[20] = ASO dose 1.0 μM + 2.0 μM MDV-3100

Sequence: TTGATTTAATGGTTGC [ISIS 560131] (MOE and (S)-cEt gapmer chemistry, further chemistry not given here) [targets intron 1]
- Apoptosis (% untreated control) ([1]; 1.34 nM): 189 % untreated control
- Apoptosis (% untreated control) ([1]; 4.0 nM): 253 % untreated control
- Apoptosis (% untreated control) ([1]; 13.4 nM): 356 % untreated control
- Apoptosis (% untreated control) ([1]; 40 nM): 262 % untreated control
- apoptosis of VCaP cells [1]: increased apoptosis of the cells in a dose dependent compared to the control
- Proliferation (% untreated control) in C4-2B with 0.08 μM MDV-3100 [2, 7]: 73 % untreated control
- Proliferation (% untreated control) in C4-2B with 0.4 μM MDV-3100 [2, 8]: 69 % untreated control
- Proliferation (% untreated control) in C4-2B with 2.0 μM MDV-3100 [2, 9]: 42 % untreated control
- Proliferation (% untreated control) in C4-2B with […] MDV-3100 [2, 10]: 71 % untreated control
- Proliferation (% untreated control) in C4-2B without MDV-3100 ([2]; ASO dose 0.04 μM): 59 % untreated control
- Proliferation (% untreated control) in C4-2B with 0.08 μM MDV-3100 [2, 11]: 66 % untreated control
- Proliferation (% untreated control) in C4-2B with 0.4 μM MDV-3100 [2, 12]: 69 % untreated control
- Proliferation (% untreated control) in C4-2B with 2.0 μM MDV-3100 [2, 13]: 37 % untreated control
- Proliferation (% untreated control) in C4-2B with […] MDV-3100 [2, 14]: 104 % untreated control
- Proliferation (% untreated control) in C4-2B without MDV-3100 ([2]; ASO dose 0.08 μM): 84 % untreated control
- Proliferation (% untreated control) in C4-2B with 0.08 μM MDV-3100 [2, 15]: 56 % untreated control
- Proliferation (% untreated control) in C4-2B with 0.4 μM MDV-3100 [2, 16]: 48 % untreated control
- Proliferation (% untreated control) in C4-2B with 2.0 μM MDV-3100 [2, 17]: 49 % untreated control
- Proliferation (% untreated control) in C4-2B with […] MDV-3100 ([2]; ASO dose 0.2 μM + […] MDV-3100): 53 % untreated control
- Proliferation (% untreated control) in C4-2B without MDV-3100 ([2]; ASO dose 0.2 μM): 47 % untreated control
- Proliferation (% untreated control) in C4-2B with 0.08 μM MDV-3100 [2, 18]: 42 % untreated control
- Proliferation (% untreated control) in C4-2B with 0.4 μM MDV-3100 [2, 19]: 48 % untreated control
- Proliferation (% untreated control) in C4-2B with 2.0 μM MDV-3100 [2, 20]: 43 % untreated control
- Proliferation (% untreated control) in C4-2B with […] MDV-3100 ([2]; ASO dose 1.0 μM + […] MDV-3100): 39 % untreated control
- Proliferation (% untreated control) in C4-2B without MDV-3100 ([2]; ASO dose 1.0 μM): 41 % untreated control
- synergy with MDV3100 ([2]; C4-2B cells): synergistic with MDV3100
- cell proliferation inhibited, combination ([2]; C4-2B cells, 0.08 μM ASO in combination with 0.4 μM MDV3100): 31%
- inhibited cell proliferation, ASO alone ([2]; C4-2B cells, ASO alone at 0.08 μM): 16%
- Percent inhibition of TMPRSS2 expression compared to the control group in 8 hours ([3]; 0.04 μM): 0%
- Percent inhibition of TMPRSS2 expression compared to the control group in 24 hours ([3]; 0.04 μM): 35%
- Percent inhibition of TMPRSS2 expression compared to the control group in 48 hours ([3]; 0.04 μM): 46%
- Percent inhibition of TMPRSS2 expression compared to the control group in 8 hours ([3]; 0.2 μM): 0%
- Percent inhibition of TMPRSS2 expression compared to the control group in 24 hours ([3]; 0.2 μM): 57%
- Percent inhibition of TMPRSS2 expression compared to the control group in 48 hours ([3]; 0.2 μM): 71%
- Percent inhibition of TMPRSS2 expression compared to the control group in 8 hours ([3]; 1 μM): 6%
- Percent inhibition of TMPRSS2 expression compared to the control group in 24 hours ([3]; 1 μM): 66%
- Percent inhibition of TMPRSS2 expression compared to the control group in 48 hours ([3]; 1 μM): 77%
- Percent inhibition of TMPRSS2 expression compared to the control group in 8 hours ([3]; 5.0 μM): 0%
- Percent inhibition of TMPRSS2 expression compared to the control group in 24 hours ([3]; 5.0 μM): 67%
- Percent inhibition of TMPRSS2 expression compared to the control group in 48 hours ([3]; 5.0 μM): 76%
- TMPRSS2 expression ([3]; time course): reduced PSA and TMPRSS2 expression in the cells relative to the control set at the 24 hr and 48 hr time points
- AR mRNA levels in LMR20 cells [4]: reduced AR mRNA levels in LMR20 cells, treated with or without either AR agonist, in a dose dependent manner relative to the baseline
- Percent inhibition of 22RV1 cell proliferation ([5]; +DHT (1 nM), ASO 1.34 nM): 0%
- Percent inhibition of 22RV1 cell proliferation ([5]; +DHT (1 nM), ASO 4.0 nM): 1%
- Percent inhibition of 22RV1 cell proliferation ([5]; +DHT (1 nM), ASO 13.4 nM): 13%
- Percent inhibition of 22RV1 cell proliferation ([5]; +DHT (1 nM), ASO 40.0 nM): 34%
- 22RV1 cell proliferation ([5]; with or without 1 nM DHT): significantly inhibited prostate cancer cell proliferation even in the presence of AR activator, DHT, compared to the control
- Percent inhibition of 22RV1 cell proliferation ([5]; −DHT, ASO 1.34 nM): 0%
- Percent inhibition of 22RV1 cell proliferation ([5]; −DHT, ASO 4.0 nM): 2%
- Percent inhibition of 22RV1 cell proliferation ([5]; −DHT, ASO 13.4 nM): 29%
- Percent inhibition of 22RV1 cell proliferation ([5]; −DHT, ASO 40.0 nM): 54%
- Proliferation (% untreated control) in LNCaP with 0.08 μM MDV-3100 [6, 7]: 59 % untreated control
- Proliferation (% untreated control) in LNCaP with 0.4 μM MDV-3100 [6, 8]: 50 % untreated control
- Proliferation (% untreated control) in LNCaP with 2.0 μM MDV-3100 [6, 9]: 42 % untreated control
- Proliferation (% untreated control) in LNCaP with […] MDV-3100 [6, 10]: 71 % untreated control
- Proliferation (% untreated control) in LNCaP without MDV-3100 ([6]; ASO dose 0.04 μM): 76 % untreated control
- Proliferation (% untreated control) in LNCaP with 0.08 μM MDV-3100 [6, 11]: 99 % untreated control
- Proliferation (% untreated control) in LNCaP with 0.4 μM MDV-3100 [6, 12]: 68 % untreated control
- Proliferation (% untreated control) in LNCaP with 2.0 μM MDV-3100 [6, 13]: 45 % untreated control
- Proliferation (% untreated control) in LNCaP with […] MDV-3100 [6, 14]: 103 % untreated control
- Proliferation (% untreated control) in LNCaP without MDV-3100 ([6]; ASO dose 0.08 μM): 106 % untreated control
- Proliferation (% untreated control) in LNCaP with 0.08 μM MDV-3100 [6, 15]: 48 % untreated control
- Proliferation (% untreated control) in LNCaP with 0.4 μM MDV-3100 [6, 16]: 40 % untreated control
- Proliferation (% untreated control) in LNCaP with 2.0 μM MDV-3100 [6, 17]: 38 % untreated control
- Proliferation (% untreated control) in LNCaP with […] MDV-3100 ([6]; ASO dose 0.2 μM + […] MDV-3100): 49 % untreated control
- Proliferation (% untreated control) in LNCaP without MDV-3100 ([6]; ASO dose 0.2 μM): 50 % untreated control
- Proliferation (% untreated control) in LNCaP with 0.08 μM MDV-3100 [6, 18]: 27 % untreated control
- Proliferation (% untreated control) in LNCaP with 0.4 μM MDV-3100 [6, 19]: 26 % untreated control
- Proliferation (% untreated control) in LNCaP with 2.0 μM MDV-3100 [6, 20]: 23 % untreated control
- Proliferation (% untreated control) in LNCaP with […] MDV-3100 ([6]; ASO dose 1.0 μM + […] MDV-3100): 25 % untreated control
- Proliferation (% untreated control) in LNCaP without MDV-3100 ([6]; ASO dose 1.0 μM): 26 % untreated control
- synergy with MDV3100 ([6]; LNCaP cells): synergistic with MDV3100
- cell proliferation inhibited, combination ([6]; LNCaP cells, 0.04 μM ASO in combination with 0.08 μM MDV3100): 41%
- inhibited cell proliferation, ASO alone ([6]; LNCaP cells, ASO alone at 0.04 μM): 24%
